Source: patent publication US7192746B2, “α-Isomaltosyltransferase, process for producing the same and use thereof” (Kabushiki Kaisha Hayashibara Seibutsu Kagaku Kenkyujo, priority 2000, dated 2007)
Read-outs that look alike come from different tables or passages of the source.

Legend:
Type in all cases: biochemical
[1] = test system: α-isomaltosyl-transferring enzyme from Bacillus globisporus N75
Experimental: (§1) The activity of the enzyme was assayed by dissolving panose in 100 mM acetate buffer (pH 6.0) to give a concentration of two percent (w/v) for a substrate solution, adding a 0.5 ml of an enzyme solution to a 0.5 ml of the substrate solution, enzymatically reacting the mixture solution at 35° C. for 30 min, suspending the reaction mixture by boiling for 10 min, and quantifying glucose by the glucose oxidation method. One unit activity of the α-isomaltosyl-transferring enzyme is defined as the enzyme amount that forms one micromole of glucose per minute under the above enzymatic reaction conditions. Throughout the specification, the enzymatic activity of the α-isomaltosyl-transferring enzyme means the unit(s) assayed as above.
(§2) The influence of metal ions on the activity of α-isomaltosyl-transferring enzyme was examined in the presence of 1 mM of a metal ion according to the assay for the enzyme activity.

[2] = test system: α-isomaltosyl-transferring enzyme from Arthrobacter ramosus S1; assay: Influence of metal ions on enzyme activity; conditions: enzyme of Strain S1; for Relative activity: 1 mM metal ion; for Effect on enzyme activity: 1 mM
Experimental: as §1, §2

[3] = test system: α-isomaltosyl-transferring enzyme from Bacillus globisporus C11; assay: Influence of metal ions on enzyme activity; conditions: enzyme of Strain C11; for Relative activity: 1 mM metal ion; for Effect on enzyme activity: 1 mM
Experimental: as §1, §2

[4] = test system: α-isomaltosyl-transferring enzyme from Bacillus globisporus C9; assay: Influence of metal ions on enzyme activity; conditions: enzyme of Strain C9; for Relative activity: 1 mM metal ion; for Effect on enzyme activity: 1 mM
Experimental: as §1
The influence of metal ions on the activity of α-isomaltosyl-transferring enzyme was examined in the presence of 1 mM of each metal-ion according to the assay for the enzyme activity.

[5] = test system: α-isomaltosyl-transferring enzyme from Arthrobacter globiformis A19; assay: Specificity to transferring acceptor; conditions: partially purified enzyme, panose as saccharide donor, 10 units/g substrate, 3.2% (w/v), 30° C., pH 6.0, 24 hours
How it was run: (§3)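 Candidate acceptor saccharides mixed with panose donor at equal concentration, 10 units/g substrate enzyme, total saccharide 3.2% (w/v), reacted 24 h at 30 °C, pH 6.0. Transfer product formation scored positive/negative by GLC (mono-/disaccharides) or HPLC (tri- and higher).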

[6] = test system: α-isomaltosyl-transferring enzyme from Bacillus globisporus C9; assay: Specificity to transferring acceptor; conditions: panose as saccharide donor, 10 units/g substrate, 3.2% (w/v), 30° C., pH 6.0, 24 hours
How it was run: as §3

[7] = test system: α-isomaltosyl-transferring enzyme from Bacillus globisporus N75; assay: Specificity to transferring acceptor; conditions: panose as saccharide donor, 10 units/g substrate, 3.2% (w/v), 30° C., pH 6.0, 24 hours
How it was run: as §3

[8] = test system: α-isomaltosyl-transferring enzyme from Arthrobacter ramosus S1; assay: Specificity to transferring acceptor; conditions: panose as saccharide donor, 10 units/g substrate, 3.2% (w/v), 30° C., pH 6.0, 24 hours
How it was run: as §3

[9] = test system: α-isomaltosyl-transferring enzyme from Bacillus globisporus C11; assay: Specificity to transferring acceptor; conditions: panose as saccharide donor, 10 units/g substrate, 3.2% (w/v), 30° C., pH 6.0, 24 hours
How it was run: as §3

[10] = test system: α-isomaltosyl-transferring enzyme from Arthrobacter globiformis A19; assay: Action on saccharides (substrates, TLC); design: key: −: there was found no substrate change before and after the enzymatic reaction; +: there were found both the reduction of substrate and the formation of cyclotetrasaccharide after the enzymatic reaction; conditions: partially purified enzyme, 2 units/g substrate, 2% (w/v) substrate, 30° C., pH 6.0, 24 hours
How it was run: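 Purified enzyme (partially purified for A. globiformis A19) at 2 units/g substrate acted on each saccharide at 2% (w/v), pH 6.0, 30° C., 24 h. Pre- and post-reaction mixtures ran on silica gel TLC in n-butanol/pyridine/water (6:4:1). Total sugars were stained by sulfuric acid-methanol and reducing sugars by diphenylamine-aniline.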

[11] = test system: α-isomaltosyl-transferring enzyme from Bacillus globisporus C9; assay: Action on saccharides (substrates, TLC); design: key: −: there was found no substrate change before and after the enzymatic reaction; +: there were found both the reduction of substrate and the formation of cyclotetrasaccharide after the enzymatic reaction; conditions: 2 units/g substrate, 2% (w/v) substrate, 30° C., pH 6.0, 24 hours
How it was run: (§4)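 Purified enzyme (2 units/g substrate) was incubated with each saccharide at 2% (w/v), pH 6.0, 30° C. for 24 hours. Reaction mixtures before and after incubation were run on silica gel TLC in n-butanol/pyridine/water (6:4:1), with total sugars stained by sulfuric acid-methanol and reducing sugars by diphenylamine-aniline.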

[12] = test system: α-isomaltosyl-transferring enzyme from Bacillus globisporus N75; assay: Action on saccharides (substrates, TLC); design: key: −: there was found no substrate change before and after the enzymatic reaction; +: there were found both the reduction of substrate and the formation of cyclotetrasaccharide after the enzymatic reaction; conditions: 2 units/g substrate, 2% (w/v) substrate, 30° C., pH 6.0, 24 hours
How it was run: as §4

[13] = test system: α-isomaltosyl-transferring enzyme from Arthrobacter ramosus S1; assay: Action on saccharides (substrates, TLC); design: key: −: there was found no substrate change before and after the enzymatic reaction; +: there were found both the reduction of substrate and the formation of cyclotetrasaccharide after the enzymatic reaction; conditions: 2 units/g substrate, 2% (w/v) substrate, 30° C., pH 6.0, 24 hours
How it was run: as §4

[14] = test system: α-isomaltosyl-transferring enzyme from Bacillus globisporus C11; assay: Action on saccharides (substrates, TLC); design: key: −: there was found no substrate change before and after the enzymatic reaction; +: there were found both the reduction of substrate and the formation of cyclotetrasaccharide after the enzymatic reaction; conditions: 2 units/g substrate, 2% (w/v) substrate, 30° C., pH 6.0, 24 hours
How it was run: as §4

[15] = 1 mM metal ion, enzyme of Strain N75

| Compound | Relative activity [1, 15] [%] | Relative activity [2] [%] | Relative activity [3] [%] | Relative activity [4] [%] | also measured |
| --- | --- | --- | --- | --- | --- |
| [Al+3] [Al^3+] | 94 | 93 | 89 | 103 |  |
| [Ba+2] [Ba^2+] | 102 | 97 | 90 | 102 |  |
| [Ca+2] [Ca^2+] | 100 | 103 | 91 | 101 | Effect on enzyme activity ([1]; 1 mM, enzyme of Strain N75): neither activated; Effect on enzyme activity [2]: neither activated; Effect on enzyme activity [3]: neither activated; Effect on enzyme activity [4]: neither activated |
| [Co+2] [Co^2+] | 92 | 91 | 89 | 103 |  |
| [Cu+2] [Cu^2+] | 15 | 2 | 56 | 57 | Effect on enzyme activity ([1]; 1 mM, enzyme of Strain N75): also inhibited; Effect on enzyme activity [2]: also inhibited; Effect on enzyme activity [3]: also inhibited; Effect on enzyme activity [4]: also inhibited |
| O=C(O)CN(CCN(CC(=O)O)CC(=O)O)CC(=O)O [EDTA] |  | 91 | 98 | 104 | Effect on enzyme activity [1]: nor inhibited; Relative activity [1]: 92%; Effect on enzyme activity [2]: nor inhibited; Effect on enzyme activity [3]: nor inhibited; Effect on enzyme activity [4]: nor inhibited |
| [Fe+2] [Fe^2+] |  | 105 |  | 96 | Relative activity ([2]; listed as Fe^3+): 75%; Relative activity ([4]; listed as Fe^3+): 105% |
| [Hg+2] [Hg^2+] | 0.5 | 0.1 | 2 | 1 | Effect on enzyme activity ([1]; 1 mM, enzyme of Strain N75): greatly inhibited; Effect on enzyme activity [2]: greatly inhibited; Effect on enzyme activity [3]: greatly inhibited; Effect on enzyme activity [4]: greatly inhibited |
| [Mg+2] [Mg^2+] | 95 | 99 | 91 |  |  |
| [Mn+2] [Mn^2+] | 101 |  | 93 | 106 |  |
| [Ni+2] [Ni^2+] | 91 | 87 | 89 | 102 |  |
| [Pb+2] [Pb^2+] | 69 | 85 | 74 | 89 |  |
| [Sr+2] [Sr^2+] | 91 | 101 | 93 | 101 |  |
| [Zn+2] [Zn^2+] | 75 | 78 | 83 | 88 |  |
| maltotriose |  |  |  |  | Product of transferring reaction, Enzyme of Stain A19 [5]: + (a saccharide-transferred product was formed in an amount of over one percent but below 10% to the total sugars); Product of transferring reaction, Enzyme of Strain C9 [6]: + (a saccharide-transferred product was formed in an amount of over one percent but below 10% to the total sugars); Product of transferring reaction, Enzyme of Strain N75 [7]: + (a saccharide-transferred product was formed in an amount of over one percent but below 10% to the total sugars); Product of transferring reaction, Enzyme of Strain S1 [8]: ++ (a saccharide-transferred product was formed in an amount of over 10% to the total sugars); Product of transferring reaction, Enzyme of Strain C11 [9]: + (a saccharide-transferred product was formed in an amount of over one percent but below 10% to the total sugars); Enzymatic action for forming cyclotetrasaccharide, Enzyme of Strain A19 [10]: −; Enzymatic action for forming cyclotetrasaccharide, Enzyme of Strain C9 [11]: −; Enzymatic action for forming cyclotetrasaccharide, Enzyme of Strain N75 [12]: −; Enzymatic action for forming cyclotetrasaccharide, Enzyme of Strain S1 [13]: −; Enzymatic action for forming cyclotetrasaccharide, Enzyme of Strain C11 [14]: − |
